Test results: patent US6737383B1, “Herbicidal oxadiazolidines” (priority 1999, dated 2004)

Legend:
[1] = tested on: bedstraw; experiment: Test B pre/postemergence bedstraw; assay type: in vivo, Galium aparine
Procedure, shortened: (§1)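 Response is a visual 0-to-10 score relative to untreated plants, where 0 means no effect and 10 means complete control, taken twelve to sixteen days after application. Treatments went onto soil at planting and onto foliage of 1- to 4-leaf plants, using a surfactant-containing non-phytotoxic solvent.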

[2] = tested on: blackgrass; experiment: Test B pre/postemergence blackgrass; assay type: in vivo, Alopecurus myosuroides
Procedure, shortened: as §1

[3] = tested on: surinam grass; experiment: Test B pre/postemergence surinam grass; assay type: in vivo, Brachiaria decumbens
Procedure, shortened: as §1

[4] = tested on: cocklebur; experiment: Test B pre/postemergence cocklebur; assay type: in vivo, Xanthium strumarium
Procedure, shortened: as §1

[5] = tested on: corn; experiment: Test B pre/postemergence corn; assay type: in vivo, Zea mays
Procedure, shortened: as §1

[6] = tested on: crabgrass; experiment: Test B pre/postemergence crabgrass; assay type: in vivo, Digitaria sanguinalis
Procedure, shortened: as §1

[7] = tested on: giant foxtail; experiment: Test B pre/postemergence giant foxtail; assay type: in vivo, Setaria faberii
Procedure, shortened: as §1

[8] = tested on: morningglory; experiment: Test B pre/postemergence morningglory; assay type: in vivo, Ipomoea hederacea
Procedure, shortened: as §1

[9] = tested on: rape; experiment: Test B pre/postemergence rape; assay type: in vivo, Brassica napus
Procedure, shortened: as §1

[10] = tested on: soybean; experiment: Test B pre/postemergence soybean; assay type: in vivo, Glycine max
Procedure, shortened: as §1

[11] = tested on: velvetleaf; experiment: Test B pre/postemergence velvetleaf; assay type: in vivo, Abutilon theophrasti
Procedure, shortened: as §1

[12] = tested on: wheat; experiment: Test B pre/postemergence wheat; assay type: in vivo, Triticum aestivum
Procedure, shortened: as §1

[13] = tested on: wild oat; experiment: Test B pre/postemergence wild oat; assay type: in vivo, Avena fatua
Procedure, shortened: as §1

[14] = tested on: smallflower flatsedge; experiment: Test B flood test smallflower flatsedge; assay type: in vivo, Cyperus difformis
Procedure, shortened: (§2)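 Read-out is a visual response score from 0 (no effect) to 10 (complete control), assigned by comparison with untreated controls. Treatment was applied at the 2-leaf stage, and plants stayed in the greenhouse for twelve to sixteen days before scoring.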

[15] = tested on: duck salad; experiment: Test B flood test duck salad; assay type: in vivo, Heteranthera limosa
Procedure, shortened: as §2

[16] = tested on: bamyardgrass; experiment: Test B flood test barnyardgrass; assay type: in vivo, Echinochloa crus-galli
Procedure, shortened: as §2

[17] = Postemergence, Rate 62 g/ha, scale 0 to 10, 0 is no effect, 10 is complete control
[18] = Postemergence, Rate 250 g/ha, scale 0 to 10, 0 no effect, 10 complete control
[19] = Preemergence, Rate 62 g/ha, scale 0 to 10, 0 is no effect, 10 is complete control
[20] = Preemergence, Rate 125 g/ha, scale 0 to 10 (0 no effect, 10 complete control)
[21] = Preemergence, Rate 250 g/ha, scale of 0 to 10 where 0 is no effect and 10 is complete control
[22] = Preemergence, Rate 500 g/ha, scale 0 (no effect) to 10 (complete control)
[23] = Rate 125 g/ha, Postemergence, scale 0 to 10, 0 no effect, 10 complete control
[24] = Rate 500 g/ha, Postemergence, 0 to 10 scale (0 no effect, 10 complete control)
[25] = Rate 125 g/ha, Postemergence section (flood test species), scale 0 to 10, 0 no effect, 10 complete control
[26] = flood test, listed under Postemergence, Rate 250 g/ha, scale 0 to 10, 0 no effect, 10 complete control
[27] = Rate 500 g/ha, Postemergence section of Table B, 0 to 10 scale (0 no effect, 10 complete control)

SMILES: CC(C)N(C(=O)n1oc(=O)n(-c2cc(Cl)ccc2Cl)c1=O)c1ccc(F)cc1 [Compound 16]
- Bedstraw plant response rating [1, 17]: 0
- Bedstraw plant response rating [1, 18]: 0
- Plant response rating, Bedstraw [1, 19]: 0
- Plant response rating, Bedstraw [1, 20]: 0
- Plant response rating, Bedstraw [1, 21]: 0
- Bedstraw plant response rating [1, 22]: 0
- Bedstraw plant response rating [1, 23]: 0
- Bedstraw plant response rating [1, 24]: 0
- Blackgrass plant response rating [2, 17]: 0
- Blackgrass plant response rating [2, 18]: 0
- Plant response rating, Blackgrass [2, 19]: 0
- Plant response rating, Blackgrass [2, 20]: 0
- Plant response rating, Blackgrass [2, 21]: 0
- Blackgrass plant response rating [2, 22]: 0
- Blackgrass plant response rating [2, 23]: 0
- Blackgrass plant response rating [2, 24]: 2
- B. signalgrass plant response rating [3, 17]: 0
- B. signalgrass plant response rating [3, 18]: 0
- Plant response rating, B. signalgrass [3, 19]: 0
- Plant response rating, B. signalgrass [3, 20]: 0
- Plant response rating, B. signalgrass [3, 21]: 0
- B. signalgrass plant response rating [3, 22]: 0
- B. signalgrass plant response rating [3, 23]: 0
- B. signalgrass plant response rating [3, 24]: 0
- Cocklebur plant response rating [4, 17]: 0
- Cocklebur plant response rating [4, 18]: 0
- Plant response rating, Cocklebur [4, 19]: 0
- Plant response rating, Cocklebur [4, 20]: 0
- Plant response rating, Cocklebur [4, 21]: 0
- Cocklebur plant response rating [4, 22]: 0
- Cocklebur plant response rating [4, 23]: 0
- Cocklebur plant response rating [4, 24]: 0
- Corn plant response rating [5, 17]: 0
- Corn plant response rating [5, 18]: 0
- Plant response rating, Corn [5, 19]: 0
- Plant response rating, Corn [5, 20]: 0
- Plant response rating, Corn [5, 21]: 0
- Corn plant response rating [5, 22]: 0
- Corn plant response rating [5, 23]: 0
- Corn plant response rating [5, 24]: 0
- Crabgrass plant response rating [6, 17]: 0
- Crabgrass plant response rating [6, 18]: 0
- Plant response rating, Crabgrass [6, 19]: 0
- Plant response rating, Crabgrass [6, 20]: 2
- Plant response rating, Crabgrass [6, 21]: 2
- Crabgrass plant response rating [6, 22]: 2
- Crabgrass plant response rating [6, 23]: 0
- Crabgrass plant response rating [6, 24]: 0
- Giant foxtail plant response rating [7, 17]: 0
- Giant foxtail plant response rating [7, 18]: 0
- Plant response rating, Giant foxtail [7, 19]: 0
- Plant response rating, Giant foxtail [7, 20]: 2
- Plant response rating, Giant foxtail [7, 21]: 3
- Giant foxtail plant response rating [7, 22]: 8
- Giant foxtail plant response rating [7, 23]: 0
- Giant foxtail plant response rating [7, 24]: 3
- Morningglory plant response rating [8, 17]: 1
- Morningglory plant response rating [8, 18]: 1
- Plant response rating, Morningglory [8, 19]: 0
- Plant response rating, Morningglory [8, 20]: 0
- Plant response rating, Morningglory [8, 21]: 0
- Morningglory plant response rating [8, 22]: 0
- Morningglory plant response rating [8, 23]: 1
- Morningglory plant response rating [8, 24]: 3
- Rape plant response rating [9, 17]: 0
- Rape plant response rating [9, 18]: 0
- Plant response rating, Rape [9, 19]: 0
- Plant response rating, Rape [9, 20]: 0
- Plant response rating, Rape [9, 21]: 0
- Rape plant response rating [9, 22]: 0
- Rape plant response rating [9, 23]: 0
- Rape plant response rating [9, 24]: 0
- Soybean plant response rating [10, 17]: 1
- Soybean plant response rating [10, 18]: 1
- Plant response rating, Soybean [10, 19]: 0
- Plant response rating, Soybean [10, 20]: 0
- Plant response rating, Soybean [10, 21]: 0
- Soybean plant response rating [10, 22]: 0
- Soybean plant response rating [10, 23]: 1
- Velvetleaf plant response rating [11, 17]: 0
- Velvetleaf plant response rating [11, 18]: 0
- Plant response rating, Velvetleaf [11, 19]: 0
- Plant response rating, Velvetleaf [11, 20]: 0
- Plant response rating, Velvetleaf [11, 21]: 0
- Velvetleaf plant response rating [11, 22]: 0
- Velvetleaf plant response rating [11, 23]: 0
- Wheat plant response rating [12, 17]: 0
- Wheat plant response rating [12, 18]: 0
- Plant response rating, Wheat [12, 19]: 0
- Plant response rating, Wheat [12, 20]: 0
- Plant response rating, Wheat [12, 21]: 0
- Wheat plant response rating [12, 22]: 0
- Wheat plant response rating [12, 23]: 0
- Wild oats plant response rating [13, 17]: 0
- Wild oats plant response rating [13, 18]: 0
- Plant response rating, Wild oats [13, 20]: 0
- Plant response rating, Wild oats [13, 21]: 0
- Wild oats plant response rating [13, 22]: 0
- Wild oats plant response rating [13, 23]: 0
- S. Flatsedge plant response rating [14, 17]: 0
- S. Flatsedge plant response rating [14, 25]: 0
- S. Flatsedge plant response rating [14, 26]: 0
- Ducksalad plant response rating [15, 17]: 0
- Ducksalad plant response rating [15, 25]: 0
- Ducksalad plant response rating [15, 27]: 0
- Ducksalad plant response rating [15, 26]: 0
- Barnyardgrass plant response rating [16, 17]: 0
- Barnyardgrass plant response rating [16, 25]: 0
- Barnyardgrass plant response rating [16, 27]: 0
- Barnyardgrass plant response rating [16, 26]: 0
